Data from PubChem BioAssay AID1919008 (Molecular Pharmacology Branch, DTP, NCI, 2023).

System: DMS-114 complex spheroids with HUVEC/MSC, growth % test/control
Assay: Anticancer human tumor DMS-114 cell line growth inhibition [AhR];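 also: spheroids exposed to agents for 7 days before readout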;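 as to viability, T/C: 100% = DMSO vehicle control wells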
Conditions: for IC50: curve of first compound; for viability, T/C: stronger effect = lower value
Procedure, shortened: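 Spheroids combined tumor cells with HUVEC endothelial cells and human MSCs as stroma. AhR antagonists were paired with standard or investigational drugs, each dosed in half-log steps down from near clinical Cmax, or from 10 microM where Cmax was unknown.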

[1] = second compound 0.1 µM, first compound 0.0316 µM
[2] = second compound 0.1 µM, first compound 0.1 µM
[3] = second compound 0.1 µM, first compound 0.316 µM
[4] = second compound 0.1 µM, first compound 1 µM
[5] = second compound 0.1 µM, first compound 3.16 µM
[6] = second compound 0.1 µM, first compound 10 µM
[7] = second compound 0.316 µM, first compound 0.0316 µM
[8] = second compound 0.316 µM, first compound 0.1 µM
[9] = second compound 0.316 µM, first compound 0.316 µM
[10] = second compound 0.316 µM, first compound 1 µM
[11] = second compound 0.316 µM, first compound 3.16 µM
[12] = second compound 0.316 µM, first compound 10 µM
[13] = second compound 1 µM, first compound 0.0316 µM
[14] = second compound 1 µM, first compound 0.1 µM
[15] = second compound 1 µM, first compound 0.316 µM
[16] = second compound 1 µM, first compound 1 µM
[17] = second compound 1 µM, first compound 3.16 µM
[18] = second compound 1 µM, first compound 10 µM
[19] = second compound 3.16 µM, first compound 0.0316 µM
[20] = second compound 3.16 µM, first compound 0.1 µM
[21] = second compound 3.16 µM, first compound 0.316 µM
[22] = second compound 3.16 µM, first compound 1 µM
[23] = second compound 3.16 µM, first compound 3.16 µM
[24] = second compound 3.16 µM, first compound 10 µM
[25] = second compound 10 µM, first compound 0.0316 µM
[26] = second compound 10 µM, first compound 0.1 µM
[27] = second compound 10 µM, first compound 0.316 µM
[28] = second compound 10 µM, first compound 1 µM
[29] = second compound 10 µM, first compound 3.16 µM
[30] = second compound 10 µM, first compound 10 µM

O=C(C=Cc1cccc(S(=O)(=O)Nc2ccccc2)c1)NO + Cc1cncc(-c2nc(NCCc3c[nH]c4ccccc34)c3ncn(C(C)C)c3n2)c1
IC50 (second compound 0.1 µM): 451 nM | IC50 (second compound 0.316 µM): 402 nM | IC50 (second compound 1 µM): 429 nM | IC50 (second compound 3.16 µM): 355 nM | IC50 (second compound 10 µM): < 31.6 nM | viability, T/C [1]: 100% | viability, T/C [2]: 91.9% | viability, T/C [3]: 59.5% | viability, T/C [4]: 27.5% | viability, T/C [5]: 11.7% | viability, T/C [6]: 9.54% | viability, T/C [7]: 84.3% | viability, T/C [8]: 77.7% | viability, T/C [9]: 55.4% | viability, T/C [10]: 28.3% | viability, T/C [11]: 10.2% | viability, T/C [12]: 9.73% | viability, T/C [13]: 90.1% | viability, T/C [14]: 80% | viability, T/C [15]: 59.2% | viability, T/C [16]: 26.9% | viability, T/C [17]: 10.7% | viability, T/C [18]: 9.6% | viability, T/C [19]: 78.8% | viability, T/C [20]: 75.5% | viability, T/C [21]: 52.8% | viability, T/C [22]: 21.3% | viability, T/C [23]: 8.43% | viability, T/C [24]: 7.76% | viability, T/C [25]: 46.9% | viability, T/C [26]: 34% | viability, T/C [27]: 20.1% | viability, T/C [28]: 9.92% | viability, T/C [29]: 4.09% | viability, T/C [30]: 4.15%

COc1ccc([C@@H](O)c2cc(-c3ncnc4cc(N5CCOCC5)ccc34)c(F)cc2Cl)nn1 + Cc1cncc(-c2nc(NCCc3c[nH]c4ccccc34)c3ncn(C(C)C)c3n2)c1
IC50 (second compound 0.1 µM): > 10000 nM | IC50 (second compound 0.316 µM): > 10000 nM | IC50 (second compound 1 µM): > 10000 nM | IC50 (second compound 3.16 µM): 7740 nM | IC50 (second compound 10 µM): < 31.6 nM | viability, T/C [1]: 125% | viability, T/C [2]: 95.8% | viability, T/C [3]: 102% | viability, T/C [4]: 104% | viability, T/C [5]: 107% | viability, T/C [6]: 55.7% | viability, T/C [7]: 101% | viability, T/C [8]: 93% | viability, T/C [9]: 96.2% | viability, T/C [10]: 104% | viability, T/C [11]: 87.5% | viability, T/C [12]: 52.2% | viability, T/C [13]: 98.7% | viability, T/C [14]: 103% | viability, T/C [15]: 99.8% | viability, T/C [16]: 107% | viability, T/C [17]: 94.4% | viability, T/C [18]: 53.2% | viability, T/C [19]: 87% | viability, T/C [20]: 90.1% | viability, T/C [21]: 98.7% | viability, T/C [22]: 94.5% | viability, T/C [23]: 85.4% | viability, T/C [24]: 39.5% | viability, T/C [25]: 35.6% | viability, T/C [26]: 38.9% | viability, T/C [27]: 29.7% | viability, T/C [28]: 29.7% | viability, T/C [29]: 17.9% | viability, T/C [30]: 12.4%

CC(C)CC(NC(=O)C(Cc1ccccc1)NC(=O)c1cnccn1)B(O)O (stereo not given) + Cc1cncc(-c2nc(NCCc3c[nH]c4ccccc34)c3ncn(C(C)C)c3n2)c1
IC50 (second compound 0.1 µM): 5.45 nM | IC50 (second compound 0.316 µM): 5.21 nM | IC50 (second compound 1 µM): 5.38 nM | IC50 (second compound 3.16 µM): 4.67 nM | IC50 (second compound 10 µM): < 0.949 nM | viability, T/C (second compound 0.1 µM, first compound 0.000949 µM): 113% | viability, T/C (second compound 0.1 µM, first compound 0.003 µM): 102% | viability, T/C (second compound 0.1 µM, first compound 0.00949 µM): 2.1% | viability, T/C (second compound 0.1 µM, first compound 0.03 µM): 0.04% | viability, T/C (second compound 0.1 µM, first compound 0.0949 µM): 0.04% | viability, T/C (second compound 0.1 µM, first compound 0.3 µM): 0.16% | viability, T/C (second compound 0.316 µM, first compound 0.000949 µM): 102% | viability, T/C (second compound 0.316 µM, first compound 0.003 µM): 94.3% | viability, T/C (second compound 0.316 µM, first compound 0.00949 µM): 1.97% | viability, T/C (second compound 0.316 µM, first compound 0.03 µM): 0.04% | viability, T/C (second compound 0.316 µM, first compound 0.0949 µM): 0.03% | viability, T/C (second compound 0.316 µM, first compound 0.3 µM): 0.15% | viability, T/C (second compound 1 µM, first compound 0.000949 µM): 101% | viability, T/C (second compound 1 µM, first compound 0.003 µM): 99.7% | viability, T/C (second compound 1 µM, first compound 0.00949 µM): 1.76% | viability, T/C (second compound 1 µM, first compound 0.03 µM): 0.45% | viability, T/C (second compound 1 µM, first compound 0.0949 µM): 0.02% | viability, T/C (second compound 1 µM, first compound 0.3 µM): 0.26% | viability, T/C (second compound 3.16 µM, first compound 0.000949 µM): 93.8% | viability, T/C (second compound 3.16 µM, first compound 0.003 µM): 80.7% | viability, T/C (second compound 3.16 µM, first compound 0.00949 µM): 0.87% | viability, T/C (second compound 3.16 µM, first compound 0.03 µM): 0.04% | viability, T/C (second compound 3.16 µM, first compound 0.0949 µM): 0.04% | viability, T/C (second compound 3.16 µM, first compound 0.3 µM): 0.18% | viability, T/C (second compound 10 µM, first compound 0.000949 µM): 37.7% | viability, T/C (second compound 10 µM, first compound 0.003 µM): 28.9% | viability, T/C (second compound 10 µM, first compound 0.00949 µM): 0.42% | viability, T/C (second compound 10 µM, first compound 0.03 µM): 0.21% | viability, T/C (second compound 10 µM, first compound 0.0949 µM): 0.21% | viability, T/C (second compound 10 µM, first compound 0.3 µM): 0.3%

CC(C)c1c(-c2ccccc2)nc2c(C#N)c[nH]n2c1=O + Cc1cncc(-c2nc(NCCc3c[nH]c4ccccc34)c3ncn(C(C)C)c3n2)c1
IC50 (second compound 0.1 µM): > 10000 nM | IC50 (second compound 0.316 µM): > 10000 nM | IC50 (second compound 1 µM): > 10000 nM | IC50 (second compound 3.16 µM): > 10000 nM | IC50 (second compound 10 µM): < 31.6 nM | viability, T/C [1]: 111% | viability, T/C [2]: 100% | viability, T/C [3]: 103% | viability, T/C [4]: 108% | viability, T/C [5]: 97.4% | viability, T/C [6]: 97.4% | viability, T/C [7]: 107% | viability, T/C [8]: 97.9% | viability, T/C [9]: 103% | viability, T/C [10]: 92.6% | viability, T/C [11]: 111% | viability, T/C [12]: 95.3% | viability, T/C [13]: 107% | viability, T/C [14]: 107% | viability, T/C [15]: 102% | viability, T/C [16]: 112% | viability, T/C [17]: 101% | viability, T/C [18]: 108% | viability, T/C [19]: 92.9% | viability, T/C [20]: 80.6% | viability, T/C [21]: 83.3% | viability, T/C [22]: 88.8% | viability, T/C [23]: 86.4% | viability, T/C [24]: 92.6% | viability, T/C [25]: 30.4% | viability, T/C [26]: 40.1% | viability, T/C [27]: 33.3% | viability, T/C [28]: 40% | viability, T/C [29]: 32.5% | viability, T/C [30]: 46.4%
